Test results taken from US7087631B2, “Aryltetrazole compounds, and compositions thereof” (Inotek Pharmaceuticals Corporation, priority 2002, dated 2006).

Biological target: xanthine oxidase (Homo sapiens, UniProt P47989)
Assay: Xanthine oxidase inhibitory activity, 96 well plate, kinetic reading at 295 nm
Assay type: biochemical

xanthine oxidase, sequence (P47989 whole entry, species assumed): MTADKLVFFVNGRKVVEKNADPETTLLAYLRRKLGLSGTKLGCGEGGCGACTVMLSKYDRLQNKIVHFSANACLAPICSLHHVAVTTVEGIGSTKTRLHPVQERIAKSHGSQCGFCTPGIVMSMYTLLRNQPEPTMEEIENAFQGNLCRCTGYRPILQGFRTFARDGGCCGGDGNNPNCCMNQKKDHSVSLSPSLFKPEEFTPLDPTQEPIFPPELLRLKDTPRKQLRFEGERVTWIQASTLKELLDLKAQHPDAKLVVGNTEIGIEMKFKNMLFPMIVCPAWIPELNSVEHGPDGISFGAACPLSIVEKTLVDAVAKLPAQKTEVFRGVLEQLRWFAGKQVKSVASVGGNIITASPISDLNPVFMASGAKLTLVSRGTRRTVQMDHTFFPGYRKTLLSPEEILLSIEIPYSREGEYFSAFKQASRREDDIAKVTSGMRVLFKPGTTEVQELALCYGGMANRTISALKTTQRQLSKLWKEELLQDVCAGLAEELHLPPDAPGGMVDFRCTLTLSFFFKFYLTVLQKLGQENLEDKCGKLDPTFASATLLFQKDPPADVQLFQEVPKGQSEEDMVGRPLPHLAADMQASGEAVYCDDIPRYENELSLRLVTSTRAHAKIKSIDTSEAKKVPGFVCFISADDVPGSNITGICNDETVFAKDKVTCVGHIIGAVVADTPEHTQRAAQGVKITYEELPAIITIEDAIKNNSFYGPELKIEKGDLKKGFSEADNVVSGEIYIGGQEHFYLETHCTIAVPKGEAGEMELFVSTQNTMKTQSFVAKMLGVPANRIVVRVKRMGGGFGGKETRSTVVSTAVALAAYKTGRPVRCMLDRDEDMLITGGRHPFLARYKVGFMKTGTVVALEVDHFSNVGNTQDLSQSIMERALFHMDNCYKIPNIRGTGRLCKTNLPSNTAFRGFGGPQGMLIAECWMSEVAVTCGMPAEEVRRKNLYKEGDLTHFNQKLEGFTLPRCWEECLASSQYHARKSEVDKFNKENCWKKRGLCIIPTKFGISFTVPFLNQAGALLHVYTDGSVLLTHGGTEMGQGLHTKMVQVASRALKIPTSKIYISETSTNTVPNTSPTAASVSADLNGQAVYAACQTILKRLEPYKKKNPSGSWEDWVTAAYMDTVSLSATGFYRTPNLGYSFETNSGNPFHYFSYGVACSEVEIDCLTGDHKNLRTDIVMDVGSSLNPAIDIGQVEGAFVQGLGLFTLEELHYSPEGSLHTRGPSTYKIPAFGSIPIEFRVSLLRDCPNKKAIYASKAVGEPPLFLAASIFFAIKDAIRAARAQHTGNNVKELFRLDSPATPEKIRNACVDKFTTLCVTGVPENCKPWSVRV

| SMILES | PERCENT XANTHINE OXIDASE INHIBITION (compound concentration 1 μM) | PERCENT XANTHINE OXIDASE INHIBITION (compound concentration 0.03 μM) | PERCENT XANTHINE OXIDASE INHIBITION (compound concentration 0.1 μM) | PERCENT XANTHINE OXIDASE INHIBITION (compound concentration 0.05 μM) | PERCENT XANTHINE OXIDASE INHIBITION (compound concentration 100 μM) | PERCENT XANTHINE OXIDASE INHIBITION (compound concentration 10 μM) | PERCENT XANTHINE OXIDASE INHIBITION (compound concentration 0.01 μM) |
| --- | --- | --- | --- | --- | --- | --- | --- |
| O=C(Nc1ccccc1)c1cccc(-c2nnn[nH]2)c1 [IO] | 0% |  |  |  |  |  |  |
| COc1ccccc1NC(=O)c1ccc(-c2nnn[nH]2)cc1 [IK] | 55% | 9% | 17% |  |  |  |  |
| N#Cc1cc(-c2nnn[nH]2)ccc1C(=O)Nc1nccs1 [JI] | 79% | 19% | 30% |  |  |  |  |
| O=C(OCc1ccc(Cl)cc1)c1ccc(-c2nnn[nH]2)cc1 [GE] | 100% |  | 100% | 59% |  |  |  |
| c1ccc(CCCOc2ccc(-c3nnn[nH]3)cc2)cc1 [IW] | 22% |  | 9% |  |  |  |  |
| COc1ccc(-c2nnn[nH]2)c2ccccc12 [HM] |  |  |  |  | 27% |  |  |
| COc1ccc(NC(=O)c2ccc(-c3nnn[nH]3)cc2)cc1 [IJ] | 93% | 27% | 58% |  |  |  |  |
| CCCCCCOC(=O)c1ccc(-c2nnn[nH]2)cc1 [GF] | 28% |  |  |  | 97% | 79% |  |
| O=C(OCc1cccnc1)c1ccc(-c2nnn[nH]2)cc1 [HO] | 98% |  | 95% | 46% |  |  |  |
| N#Cc1cc(-c2nnn[nH]2)ccc1C(=O)Nc1cccnc1 [JH] | 86% | 23% | 41% |  |  |  |  |
| O=C(OCC(Cl)(Cl)Cl)c1ccc(-c2nnn[nH]2)cc1 [GV] | 95% |  | 73% |  |  |  | 14% |
| O=C(OCCN1C(=O)CCC1=O)c1ccc(-c2nnn[nH]2)cc1 [GW] | 39% |  | 9% |  |  |  | 5% |
| CCCCOc1ccc(NC(=O)c2ccc(-c3nnn[nH]3)cc2)cc1 [IQ] | 64% | 36% | 33% |  |  |  |  |
| c1cncc(-c2ccc(-c3nnn[nH]3)cc2)c1 [HI] | 14% |  |  |  | 70% | 24% |  |
| CCCCc1ccc(NC(=O)c2ccc(-c3nnn[nH]3)cc2)cc1 [IH] | 95% | 33% | 63% |  |  |  |  |
| O=C(Oc1cccc(Br)c1)c1ccc(-c2nnn[nH]2)cc1 [GT] | 94% |  | 53% |  |  |  | 8% |
| O=C(OCCc1cccs1)c1ccc(-c2nnn[nH]2)cc1 [HQ] | 95% |  | 97% | 53% |  |  |  |
| CCC#CCOC(=O)c1ccc(-c2nnn[nH]2)cc1 [GQ] | 78% |  | 35% |  |  |  | 0% |
| O=S(=O)(NC12CC3CC(CC(C3)C1)C2)c1ccc(-c2nnn[nH]2)cc1 [HU] | 0% |  |  |  |  |  |  |
| O=C(NCc1ccccc1)c1ccc(-c2nnn[nH]2)cc1 [JA] |  |  | 0% |  |  |  |  |
